The values that follow come from US20140093585A1, “PARP INHIBITORS FOR THE TREATMENT OF CIPN” (AbbVie Inc., priority 2011, published 2014).

Entries after “also recorded” stand apart in the source; their conditions may differ.

Experiment [1] concerns vincristine model of chemotherapy-induced pain. Nature of the experiment: Vincristine model of chemotherapy-induced pain: mechanical threshold with von Frey monofilaments. In kind it is in vivo, rats. The following applies: for development of mechanical allodynia (mechanical threshold, von Frey): vincristine 30 ug/kg/day for 12 days; for reversal of mechanical allodynia (von Frey), positive control: rats receiving vincristine, morphine 6 mg/kg i.p. acutely on each day of testing. The protocol: Rats were administered a PARP Inhibitor, 2-[(2R)-2-methylpyrrolidin-2-yl]-1H-benzimidazole-4-carboxamide (Compound A) or 6-fluoro-2-(2-methylpyrrolidin-2-yl)-1H-benzimidazole-4-carboxamide (Compound B), at doses of 25 mg/kg/day or 50 mg/kg/day (i.p.), for two days prior to the initiation of vincristine. After two days or pre-dosing with the PARP inhibitor, two minipumps were implanted in rats. Vincristine was administered via a subcutaneous mini-osmotic pump that delivered 30 ug/kg/day (i.v) for twelve days. PARP Inhibitor, Compound A or Compound B, or vehicle was administered via a subcutaneous mini-osmotic pump that delivered 25 mg/kg/day, 50 mg/kg/day, or vehicle (i.p.) for twelve days. A positive control group of rats receiving vincristine were dosed acutely with morphine (6 mg/kg, i.p.) on each day of testing. A negative control group of rats received saline. Mechanical threshold was determined for all rats using von Frey monofilaments at 5, 9 and 12 days following initiation of vincristine administration (days 7, 11 and 14 of compound delivery, respectively) for Compound A, and at 3, 6 and 10 days following initiation of vincristine administration (days 5, 8 and 12 of compound delivery, respectively) for Compound B. Mechanical allodynia was observed on all testing days in rats treated with vincristine compared to the naïve group.
Rats were administered a PARP Inhibitor, 2-[(2R)-2-methylpyrrolidin-2-yl]-1H-benzimidazole-4-carboxamide (Compound A), at doses of 25 mg/kg/day or 50 mg/kg/day (i.p., bid) for two days prior to the initiation of vincristine. After two days or pre-dosing with ABT-888, two minipumps were implanted in rats. Vincristine was administered via a subcutaneous mini-osmotic pump that delivered 30 ug/kg/day (i.v) for twelve days. Compound A or vehicle was administered via a subcutaneous mini-osmotic pump that delivered 25 mg/kg/day or 50 mg/kg/day (i.p.) for twelve days. A positive control group of rats receiving vincristine were dosed with acutely morphine (6 mg/kg, i.p.) on each day of testing. A negative control group of rats received saline. Mechanical threshold was determined for all rats using von Frey monofilaments on 5, 9 and 12 days following initiation of vincristine administration (days 7, 11 and 14 of compound delivery, respectively). Mechanical allodynia was observed on all testing days in rats treated with vincristine compared to the naïve group.
Vincristine (i.v, […]) was administered by mini-pump for twelve days. Rats were divided into four groups: Group 1: Vehicle; Group 2: 1-(2-fluoro-5-((4-oxo-3,4,5,6,7,8-hexahydrophthalazin-1-yl)methyl)phenyl)pyrrolidine-2,5-dione (Compound D), 25 mg/kg/day; Group 3: Compound D, 50 mg/kg/day; Group 4: Vehicle+Positive control (morphine). Groups 2 and 3 were pretreated with their respective dose of Compound D (either 25 mg/kg or 50 mg/kg, ip) for two days prior to co-dosing with vincristine. Rats in the positive control group were dosed with vehicle by mini-pump and were acutely administered morphine on day of testing. Mechanical threshold was determined using von Frey monofilaments on days 5, 9, and 12 post-mini-pump implantation. Plasma and brain were collected on day 12. […] Anti-nociceptive efficacy was dose-dependent and observed on days 5, 9, and 12 (FIG. 10).

In a further experiment the test system is PAR (pADPr). Nature of the experiment: PAR levels in glabrous hindpaw skin biopsies, ELISA measuring pADPr. In kind it is in vivo, rats. The following applies: Example 4; skin biopsies on day 12 of Example 3; Compound A 25 mg/kg and 50 mg/kg; FIG. 8. The protocol: Following behavioral testing on day 12 in Example 3, skin biopsies were taken from glabrous hindpaw skin from rats in the naïve, vincristine, and vincristine+Compound A groups (n=5 per group). PAR levels were assessed using ab ELISA assay to measure pADPr as previously described (Liu et al., 2008). PAR levels in skin were increased by vincristine, as compared to the saline group.

The next experiment has as its system cisplatin model. Nature of the experiment: Cisplatin model: behavioral assays (von Frey mechanical threshold, paw withdrawal latency from radiant heat). In kind it is in vivo. The following applies: mice, cisplatin cumulative 23 mg/kg, Compound C 25 or 50 mg/kg/day i.p. The protocol: (§1) Mice were administered a PARP Inhibitor, 2-[(2S)-2-methylpyrrolidin-2-yl]-1H-benzimidazole-4-carboxamide (Compound C) at doses of 25 mg/kg/day or 50 mg/kg/day (i.p.) for two days prior to the initiation of cisplatin. The 50 mg/kg dose of Compound C was administered (i.p.) for two days prior to oxaliplatin administration. After two days of pre-dosing with the PARP Inhibitor, mice were co-administered Compound C with cisplatin or oxaliplatin for 5 days (daily injections, i.p.), followed by 5 days off, followed by 5 daily injections (i.p.). Cumulative dose of cisplatin was 23 mg/kg. Cumulative dose of oxaliplatin was 30 mg/kg. Behavioral assays were performed on all groups of mice before dosing, and then at weeks 3, 6, and 8. Behavioral assays including determining mechanical threshold with von Frey monofilaments, determining, latency to paw withdrawal from a radiant heat source, and number of paw lifts from a cold plate.

In another experiment the test system is oxaliplatin model. Kind of experiment: Oxaliplatin model: behavioral assays (von Frey mechanical threshold, paw lifts from cold plate). Format: in vivo. The following applies: mice, oxaliplatin cumulative 30 mg/kg, Compound C 50 mg/kg i.p. The protocol:
as §1

The test system of experiment [2] is digital nerve SNAP amplitude, cisplatin-treated mice. Kind of experiment: Nerve conduction study: sensory nerve action potential (SNAP) recording from the digital nerve after cisplatin. The conditions noted are these: Example 5, cisplatin 2.3 mg/kg/day i.p., Compound C 25 or 50 mg/kg/day (i.p., bid), week 3, FIG. 9. In kind it is in vivo. The protocol: Mice were administered a PARP Inhibitor, 2-[(2S)-2-methylpyrrolidin-2-yl]-1H-benzimidazole-4-carboxamide (Compound C), at doses of 25 mg/kg/day or 50 mg/kg/day (i.p., bid), for two days prior to the initiation of cisplatin. After two days or pre-dosing with Compound C, mice were co-dosed with the PARP inhibitor (25 mg/kg/day or 50 mg/kg/day) and cisplatin (2.3 mg/kg/day, i.p.). The dosing regimen consisted for 5 daily co-injections, followed by 5 days off, and then a repeat of 5 daily co-injection. Nerve conduction studies were performed after the final injections in week 3. Sensory nerve action potential (SNAP) recordings were made from the digital nerve. Cisplatin induced a decrease in amplitude in SNAP recording from the digital nerve, an effect that was prevented by 2-[(2S)-2-methylpyrrolidin-2-yl]-1H-benzimidazole-4-carboxamide (Compound C) treatment (FIG. 9).

As to `C[C@]1(c2nc3c(C(N)=O)cccc3[nH]2)CCCN1` [Compound A, 2-[(2R)-2-methylpyrrolidin-2-yl]-1H-benzimidazole-4-carboxamide], the “development of mechanical allodynia (mechanical threshold, von Frey)” value was “attenuated development of mechanical allodynia; also recorded: prevention of vincristine-mediated pain” in experiment [1] (Example 1, rats, Compound A 25 or 50 mg/kg/day i.p., 2 days pre-dosing then mini-pump 12 days, tested 5, 9 and 12 days after vincristine start, FIG. 1); “attenuated development of mechanical allodynia; also recorded: prevention of vincristine-mediated pain” in experiment [1] (Example 3, rats, Compound A 25 or 50 mg/kg/day (i.p., bid pre-dosing 2 days, then mini-pump 12 days), tested days 5, 9 and 12, FIG. 7). The “vincristine-mediated PAR activation (PAR levels) in rat glabrous skin” value in the experiment on PAR (pADPr) was “significantly reduced vincristine-mediated PAR activation; also recorded: prevention of vincristine-mediated increase in PAR levels in skin”.
Turning to `CC1(c2nc3c(C(N)=O)cc(F)cc3[nH]2)CCCN1` (stereo not drawn) [Compound B, 6-fluoro-2-(2-methylpyrrolidin-2-yl)-1H-benzimidazole-4-carboxamide], the “development of mechanical allodynia (mechanical threshold, von Frey)” value in experiment [1] (Example 1, rats, Compound B 25 or 50 mg/kg/day i.p., 2 days pre-dosing then mini-pump 12 days, tested 3, 6 and 10 days after vincristine start, FIG. 2) is “attenuated development of mechanical allodynia; also recorded: prevention of vincristine-mediated pain”.
On to `C[C@@]1(c2nc3c(C(N)=O)cccc3[nH]2)CCCN1` [Compound C, 2-[(2S)-2-methylpyrrolidin-2-yl]-1H-benzimidazole-4-carboxamide], for which the “development of mechanical allodynia (von Frey)” value in the experiment on cisplatin model (weeks 3, 6 and 8) is listed as “attenuated development of mechanical allodynia; also recorded: attenuation of cisplatin-mediated mechanical allodynia”; with oxaliplatin model (weeks 3 and 6), “attenuated development of mechanical allodynia; also recorded: attenuation of oxaliplatin-mediated mechanical allodynia”. For the same molecule, in the experiment on cisplatin model (weeks 3 and 6), the “development of heat hyperalgesia (latency to paw withdrawal from radiant heat source)” value is on record as “attenuated development of heat hyperalgesia; also recorded: attenuation of cisplatin-mediated heat hyperalgesia”. Besides, the “development of cold hyperalgesia (number of paw lifts from cold plate)” value with oxaliplatin model (week 6) is listed as “attenuated development of cold hyperalgesia; also recorded: attenuation of oxaliplatin-mediated cold allodynia”. Also, the “cisplatin-induced decrease in amplitude in SNAP recording from the digital nerve” value in experiment [2] is “prevented; also recorded: prophylactic effect”.
`O=C1CCC(=O)N1c1cc(Cc2n[nH]c(=O)c3c2CCCC3)ccc1F` [Compound D, 1-(2-fluoro-5-((4-oxo-3,4,5,6,7,8-hexahydrophthalazin-1-yl)methyl)phenyl)pyrrolidine-2,5-dione]: the “vincristine-induced mechanical allodynia (mechanical threshold, von Frey)” value in experiment [1] (Example 6, rats, vincristine i.v. by mini-pump 12 days, Compound D 25 or 50 mg/kg/day, 2 days ip pretreatment, days 5, 9 and 12 post-mini-pump implantation, FIG. 10) is “attenuated vincristine-induced mechanical allodynia; also recorded: dose-dependent; also recorded: prevention of vincristine-mediated pain”.
As for `CN1CC[C@]23c4c5ccc(O)c4O[C@H]2[C@@H](O)C=C[C@H]3[C@H]1C5` [Morphine, morphine, reference compound], the “reversal of mechanical allodynia (von Frey), positive control” value in experiment [1] (Example 1) and in experiment [1] (Example 3) was “fully reversed mechanical allodynia on all testing days” each time.
